Data taken from patent US20260124214A1, “HETEROCYCLIC COMPOUNDS FOR USE IN THE TREATMENT OF CANCER” (ARTIOS PHARMA LIMITED, priority 2021, published 2026).
Structures can show the parent of a compound that is named as a salt.

Target: T1, Human Polθ polymerase domain (aa1820-2590) (Homo sapiens, UniProt O75417)
T1 construct: Human Polθ polymerase domain (aa1820-2590) was expressed in E. Coli; made in house; host or cells: E. coli
T1 sequence (O75417 1820-2590): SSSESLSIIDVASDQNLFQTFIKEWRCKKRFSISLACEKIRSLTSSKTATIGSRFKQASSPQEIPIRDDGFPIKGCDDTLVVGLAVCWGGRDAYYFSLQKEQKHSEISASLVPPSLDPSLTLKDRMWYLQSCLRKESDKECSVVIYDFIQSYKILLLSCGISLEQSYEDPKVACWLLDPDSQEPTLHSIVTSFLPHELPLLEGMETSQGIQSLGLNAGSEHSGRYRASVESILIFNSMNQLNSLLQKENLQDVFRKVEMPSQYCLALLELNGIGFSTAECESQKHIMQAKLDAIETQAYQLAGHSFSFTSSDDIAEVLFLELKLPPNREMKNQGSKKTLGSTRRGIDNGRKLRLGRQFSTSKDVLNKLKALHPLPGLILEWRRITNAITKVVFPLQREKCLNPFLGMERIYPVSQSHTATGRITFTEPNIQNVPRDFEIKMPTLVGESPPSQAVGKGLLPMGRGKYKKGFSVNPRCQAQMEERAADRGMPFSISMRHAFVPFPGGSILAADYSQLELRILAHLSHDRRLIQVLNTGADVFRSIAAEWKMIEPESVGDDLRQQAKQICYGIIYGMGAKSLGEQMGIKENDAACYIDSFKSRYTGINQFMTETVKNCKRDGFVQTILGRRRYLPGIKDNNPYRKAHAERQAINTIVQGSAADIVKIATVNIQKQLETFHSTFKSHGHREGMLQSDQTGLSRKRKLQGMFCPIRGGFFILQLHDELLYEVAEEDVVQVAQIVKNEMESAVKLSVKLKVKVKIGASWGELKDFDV
Assay: Polθ Polymerase Domain WT KI Assay (PicoGreen)
Type: biochemical
Settings: 100 nM DNA substrate, 0.156 nM Polθ, initial rates vs inhibitor concentration
Summary of the method: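 E. coli-expressed human Polθ polymerase domain (aa1820-2590) on annealed DNA II Short/Long primer-template (1.2:1), in 25 mM Tris pH 7.5, NaCl, 5% glycerol, 0.01% Triton X-100, 0.1 mg/ml BSA, 1 mM DTT, 1% DMSO. EDTA-quenched timepoints to 180 min, PicoGreen fluorescence. Initial rates vs inhibitor concentration fitted four-parameter for KI.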

Row | Ki [nM] | Structure (SMILES)
1 | 1.66 | Cc1cc(C(F)(F)F)cc(N2C(=O)C[C@@H]3CN(Cc4cn5c(n4)[C@H](C)N(C)CC5)c4c(Cl)cccc4N(C)C(=O)[C@H]32)n1 (racemic) [Example 96b, (3aR,11aS)-6-Chloro-5-(((S/R)-7,8-dimethyl-5,6,7,8-tetrahydroimidazo[1,2-a]pyrazin-2-yl)methyl)-10-methyl-1-(6-methyl-4-(trifluoromethyl)pyridin-2-yl)-1,3a,4,5,10,11a-hexahydro-2H-benzo[b]pyrrolo[2,3-f][1,4]diazocine-2,11(3H)-dione]
2 | 0.515 | Cc1cc(C(F)(F)F)cc(N2C(=O)C[C@@H]3CN(CCN4CCN(C)[C@@H](C)C4)c4c(C)cccc4N(C)C(=O)[C@H]32)n1 [Example 46, (3aR,11aS)-5-(2-((S)-3,4-Dimethylpiperazin-1-yl)ethyl)-6,10-dimethyl-1-(6-methyl-4-(trifluoromethyl)pyridin-2-yl)-1,3a,4,5,10,11a-hexahydro-2H-benzo[b]pyrrolo[2,3-f][1,4]diazocine-2,11(3H)-dione dihydrochloride]
3 | 1.2 | Cc1cc(C(F)(F)F)cc(N2C(=O)C[C@@H]3CN(CCN4CCNCC4)c4c(C)cccc4N(C)C(=O)[C@H]32)n1 [Example 16, (3aR,11aS)-6,10-Dimethyl-1-(6-methyl-4-(trifluoromethyl)pyridin-2-yl)-5-(2-(piperazin-1-yl)ethyl)-1,3a,4,5,10,11a-hexahydro-2H-benzo[b]pyrrolo[2,3-f][1,4]diazocine-2,11(3H)-dione]
4 | 3.05 | Cc1cc(C(F)(F)F)cc(N2C(=O)C[C@@H]3CN(C[C@@H]4CCNC4)c4c(Cl)cccc4N(C)C(=O)[C@H]32)n1 [Example 99, (3aR,11aS)-6-Chloro-10-methyl-1-(6-methyl-4-(trifluoromethyl)pyridin-2-yl)-5-(((R)-pyrrolidin-3-yl)methyl)-1,3a,4,5,10,11a-hexahydro-2H-benzo[b]pyrrolo[2,3-f][1,4]diazocine-2,11(3H)-dione hydrochloride]
5 | 17.3 | Cc1cc(C(F)(F)F)cc(N2C(=O)C[C@@H]3CN(C[C@H]4CNC[C@@H]4O)c4c(F)cccc4N(C)C(=O)[C@H]32)n1 (relative stereo) [Example 91, (3aR,11aS)-6-Fluoro-5-(((rel-trans)-4-hydroxypyrrolidin-3-yl)methyl)-10-methyl-1-(6-methyl-4-(trifluoromethyl)pyridin-2-yl)-1,3a,4,5,10,11a-hexahydro-2H-benzo[b]pyrrolo[2,3-f][1,4]diazocine-2,11(3H)-dione]
6 | 0.625 | Cc1cc(C(F)(F)F)cc(N2C(=O)C[C@@H]3CN(CCN4CC5CCC(C4)N5C)c4c(C)cccc4N(C)C(=O)[C@H]32)n1 [Example 60, (3aR,11aS)-6,10-Dimethyl-5-(2-(8-methyl-3,8-diazabicyclo[3.2.1]octan-3-yl)ethyl)-1-(6-methyl-4-(trifluoromethyl)pyridin-2-yl)-1,3a,4,5,10,11a-hexahydro-2H-benzo[b]pyrrolo[2,3-f][1,4]diazocine-2,11(3H)-dione dihydrochloride]
7 | 1.39 | Cc1cc(C(F)(F)F)cc(N2C(=O)C[C@@H]3CN(CC4CN(C)CCO4)c4c(Cl)cccc4N(C)C(=O)[C@H]32)n1 (single isomer, unassigned) [Example 120a, hydrochloride]
8 | 0.651 | Cc1cc(C(F)(F)F)cc(N2C(=O)C[C@@H]3CN(CCN4C[C@@H](C)N[C@@H](C)C4)c4c(C)cccc4N(C)C(=O)[C@H]32)n1 (relative stereo) [Example 45, (3aR,11aS)-5-(2-(rel-(3R,5S)-3,5-Dimethylpiperazin-1-yl)ethyl)-6,10-dimethyl-1-(6-methyl-4-(trifluoromethyl)pyridin-2-yl)-1,3a,4,5,10,11a-hexahydro-2H-benzo[b]pyrrolo[2,3-f][1,4]diazocine-2,11(3H)-dione dihydrochloride]
9 | 1.75 | Cc1cc(C(F)(F)F)cc(N2C(=O)C[C@@H]3CN(C[C@H]4CCNC4)c4c(Cl)cccc4N(C)C(=O)[C@H]32)n1 [Example 100, (3aR,11aS)-6-Chloro-10-methyl-1-(6-methyl-4-(trifluoromethyl)pyridin-2-yl)-5-(((S)-pyrrolidin-3-yl)methyl)-1,3a,4,5,10,11a-hexahydro-2H-benzo[b]pyrrolo[2,3-f][1,4]diazocine-2,11(3H)-dione hydrochloride]
10 | 0.237 | Cc1cc(C(F)(F)F)cc(N2C(=O)C[C@@H]3CN(Cc4cc5n(n4)CCN(C)C5)c4c(C)cccc4N(C)C(=O)[C@H]32)n1 [Example 113, (3aR,11aS)-6,10-Dimethyl-5-((5-methyl-4,5,6,7-tetrahydropyrazolo[1,5-a]pyrazin-2-yl)methyl)-1-(6-methyl-4-(trifluoromethyl)pyridin-2-yl)-1,3a,4,5,10,11a-hexahydro-2H-benzo[b]pyrrolo[2,3-f][1,4]diazocine-2,11(3H)-dione]
11 | 1.64 | Cc1cc(C(F)(F)F)cc(N2C(=O)C[C@@H]3CN(Cc4ccncc4)c4c(C)cccc4N(C)C(=O)[C@H]32)n1 [Example 114, (3aR,11aS)-6,10-Dimethyl-1-(6-methyl-4-(trifluoromethyl)pyridin-2-yl)-5-(pyridin-4-ylmethyl)-1,3a,4,5,10,11a-hexahydro-2H-benzo[b]pyrrolo[2,3-f][1,4]diazocine-2,11(3H)-dione]
12 | 5.21 | Cc1cc(C(F)(F)F)cc(N2C(=O)C[C@@H]3CN(C[C@@H]4CCCN4)c4c(Cl)cccc4N(C)C(=O)[C@H]32)n1 (racemic) [Example 107b, (3aR,11aS)-6-Chloro-10-methyl-1-(6-methyl-4-(trifluoromethyl)pyridin-2-yl)-5-(((S/R)-pyrrolidin-2-yl)methyl)-1,3a,4,5,10,11a-hexahydro-2H-benzo[b]pyrrolo[2,3-f][1,4]diazocine-2,11(3H)-dione]
13 | 1.48 | COCCN1CCC(CN2C[C@H]3CC(=O)N(c4cc(C(F)(F)F)cc(C)n4)[C@@H]3C(=O)N(C)c3cccc(Cl)c32)CC1 [Example 87, (3aR,11aS)-6-Chloro-5-((1-(2-methoxyethyl)piperidin-4-yl)methyl)-10-methyl-1-(6-methyl-4-(trifluoromethyl)pyridin-2-yl)-1,3a,4,5,10,11a-hexahydro-2H-benzo[b]pyrrolo[2,3-f][1,4]diazocine-2,11(3H)-dione]
14 | 1.33 | COCCN1CCN(CCN2C[C@H]3CC(=O)N(c4cc(C(F)(F)F)cc(C)n4)[C@@H]3C(=O)N(C)c3cccc(Cl)c32)CC1 [Example 27, (3aR,11aS)-6-Chloro-5-(2-(4-(2-methoxyethyl)piperazin-1-yl)ethyl)-10-methyl-1-(6-methyl-4-(trifluoromethyl)pyridin-2-yl)-1,3a,4,5,10,11a-hexahydro-2H-benzo[b]pyrrolo[2,3-f][1,4]diazocine-2,11(3H)-dione]
15 | 1.91 | Cc1cc(C(F)(F)F)cc(N2C(=O)C[C@@H]3CN(C[C@@H]4CCN(C)[C@H](C)C4)c4c(Cl)cccc4N(C)C(=O)[C@H]32)n1 (single isomer, unassigned) [Example 126b]
16 | 0.458 | Cc1cc(C(F)(F)F)cc(N2C(=O)C[C@@H]3CN(Cc4cc5n(n4)CCN(C)C5)c4c(Cl)cccc4N(C)C(=O)[C@H]32)n1 [Example 76, (3aR,11aS)-6-Chloro-10-methyl-5-((5-methyl-4,5,6,7-tetrahydropyrazolo[1,5-a]pyrazin-2-yl)methyl)-1-(6-methyl-4-(trifluoromethyl)pyridin-2-yl)-1,3a,4,5,10,11a-hexahydro-2H-benzo[b]pyrrolo[2,3-f][1,4]diazocine-2,11(3H)-dione]
